Results on twelve compounds are retold here after ChEMBL document CHEMBL3044546, “Synthesis of inhibitors of imidazole glycerol phosphate dehydratase” (Bioorg Med Chem Lett, 1996).

Test system in one assay: not listed separately
As to the kind of experiment: Inhibition of Saccharomyces cerevisiae imidazole glycerol-phosphate dehydratase expressed in Escherichia coli.
In turn, `O=P(O)(O)COCCNc1nc[nH]n1` showed an IC50 of 5 µM.
As to `O=P(O)(O)CC(O)Cn1cncn1` (centres undefined), affinity was put at a Ki of 0.0006 µM.
On to `CNC(CC(O)CCP(=O)(O)O)c1nc[nH]n1` (centres undefined), for which inhibition was half-maximal at 10 µM (IC50). That is a double-digit micromolar value.
As for `O=C(O)C(OCCC(O)Cn1cncn1)C(=O)O` (centres undefined), half-maximal inhibition (IC50) was put at 30 µM.
On the same count and under the same terms, the result for `O=C(O)C(CCCC(O)c1nc[nH]n1)C(=O)O` (centres undefined) reads greater than 500 µM; that for `O=C(O)C(OCC(O)Cn1cncn1)C(=O)O` (centres undefined), 100 µM.
Compound `O=C(O)C(CC(O)c1nc[nH]n1)C(=O)O` (centres undefined) registered an IC50 greater than 500 µM.
The compound `O=P(O)(O)COCC(O)Cn1cncn1` (centres undefined) displayed an IC50 of less than 1 µM.
For the compound `O=C(O)C(CCC(O)c1nc[nH]n1)C(=O)O` (centres undefined), inhibition was half-maximal at 6 µM (IC50).
The compound `O=P(O)(O)CCCCC(O)c1nc[nH]n1` (centres undefined) yielded an IC50 of 80 µM. Compared with the last compound, the IC50 is about 13-fold higher.
Compound `O=P(O)(O)CSCC(O)Cn1cncn1` (centres undefined) yielded an IC50 of 7 µM.
For the compound `O=P(O)(O)CCC(O)c1nc[nH]n1` (centres undefined), inhibition was half-maximal at 0.13 µM (IC50) and the Ki came to 0.04 µM.

For a further assay, the system named is Saccharomyces cerevisiae. As to the kind of experiment: Inhibition of Saccharomyces cerevisiae imidazole glycerol-phosphate dehydratase expressed in Escherichia coli at 1 uM.
Take `O=P(O)(O)COCC(O)Cn1cncn1` (centres undefined): the inhibition was found to be 80%.
